Here are results for 29 compounds from PubChem BioAssay (NCI).

Common to all, as to assay: NCI tumour cell line growth inhibition, 48 h
Assay [1] deals with BT-549 breast.
In assay [2] the test system is HCT-116 colon.
In assay [3] the test system is KM12 colon.
Assay [4] deals with MDA-MB-435.
The subject of assay [5] is OVCAR-5 ovarian.
In assay [6] the test system is RXF 393 renal.
In assay [7] the test system is SF-295 CNS.
The test system of assay [8] is SK-MEL-2 melanoma.
For assay [9], the system named is SNB-19 CNS.
The subject of assay [10] is SF-539 CNS.
Assay [11] has as its system T-47D breast.

Molecules are shown by their SMILES.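 Cells were grown in 96-well plates and exposed to each compound for 48 hours at five concentrations; endpoints were interpolated linearly between bracketing concentrations, or set to the highest concentration if not reached. TGI marks complete inhibition of growth.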 Where a SMILES comes first, the peptide text is derived from it. The star is where a group is joined. Cbz = O=C(OCc1ccccc1)*

Consider `CCN1CC2=C(OC(N)=C(C#N)C2c2ccc(Cl)cc2)/C(=C/c2ccc(Cl)cc2)C1` (stereo not given), for which the TGI was more than 100 µM in assay [1]; 54.9 µM in assay [2]; more than 100 µM in assay [3]; more than 100 µM in assay [4]; more than 100 µM in assay [5]; 31.9 µM in assay [6]. Moreover, the TGI in assay [7] is more than 100 µM; in assay [8], more than 100 µM; in [9] it was 51 µM.

As for `COc1ccc(/C=C2\C(=O)N(C(=O)c3ccc(NC(C)=O)cc3)N=C2C)cc1OC`, the TGI in [2], in [3], in assay [5], in assay [7], in [10] and in [8] was more than 100 µM each time. Further, in assay [9], the TGI was more than 100 µM.

With `NC(=O)N/N=C(\Cc1cc(=O)oc2cc(O)ccc12)C(=O)Nc1ccccc1C(N)=O`, the TGI in [1], in assay [2], in assay [3], in assay [4], in assay [5] and in assay [6] was more than 100 µM throughout. The TGI in [7], in [10], in assay [8] and in assay [9] was more than 100 µM in each case.

As to `CCOP(=O)(OCC)/C(C#N)=C/c1nc[nH]c1C`, the TGI in [1], in [2], in [3], in assay [4], in assay [5] and in assay [6] was more than 100 µM each time. Also, the TGI in assay [7], in assay [10], in assay [8] and in [9] was more than 100 µM in each case.

On to `CCOc1cc2c(cc1OC)c[n+](C)c1c3cc(OC)c(OC)cc3ccc21`, for which the TGI is more than 100 µM in [2]; more than 100 µM in assay [3]; more than 85.2 µM in assay [5]; 73.5 µM in assay [6]; more than 100 µM in assay [7]; more than 100 µM in assay [10]. In addition, the TGI in [8] was more than 80.6 µM; in assay [9] it was more than 100 µM.

In the case of `CCOC(=O)c1nc(SC)sc1NC(=O)c1ccc(OC)cc1`, the TGI in assay [2] was 48.2 µM; in [3], more than 100 µM; in assay [4] it was more than 100 µM; in assay [5] it was more than 100 µM; in assay [6], more than 100 µM; in assay [7], more than 100 µM. Moreover, the TGI in [10] is 34.9 µM; in assay [8], more than 100 µM; in assay [9], more than 100 µM; in [11], more than 100 µM.

Consider `Cc1cc2c(cc1Cl)SSc1cc(Cl)c(C)cc1S(=O)(=O)Nc1nc(N)nn1C(O)n1nc(N)nc1NS2(=O)=O`, for which the TGI in [1], in [2], in assay [3], in [5], in assay [6] and in assay [7] was more than 10 µM each time. In addition, the TGI in assay [10], in [8], in [9] and in assay [11] was more than 10 µM in each case.

In the case of `COC(=O)C12C(=O)CC3CCC1C32C(=O)OC` (stereo not given), the TGI in assay [1], in [2], in [3], in assay [4], in assay [5] and in assay [6] was more than 100 µM throughout. In addition, the TGI in [7], in assay [10], in assay [8] and in [9] was more than 100 µM throughout.

As to `O=C(CN1CCCCC1)c1ccc2[nH]c(=O)oc2c1`, the TGI in [1], in assay [2], in assay [3], in assay [4], in [5] and in assay [6] was more than 100 µM throughout. In addition, the TGI in [7], in assay [10], in assay [8] and in [9] was more than 100 µM throughout.

In the case of `C/C(=N/NC(=S)N1CCCCCC1)c1cccc(/C(C)=N\NC(=S)N2CCCCCC2)n1`, the TGI in [2] was 3.48 µM; in [3] it was 3.16 µM; in assay [4] it was 3.36 µM; in assay [5] it was 5.26 µM; in [6] it was 3.69 µM; in assay [7], 4.12 µM. Moreover, the TGI is 3.15 µM in assay [10], 3.81 µM in [8], 9.43 µM in [9] and 5.95 µM in assay [11].

With `OC1C2CN3CCN(C2)CC1(c1ccccc1)C3` (stereo not given), the TGI in [1], in assay [2], in assay [3], in assay [4], in assay [5] and in assay [6] was more than 100 µM in each case. Moreover, the TGI in assay [7], in [10], in [8] and in [9] was more than 100 µM throughout.

Turning to `CC(C)C(Sc1nc(-c2ccccc2)c(-c2ccccc2)[nH]1)C(=O)N/N=C/c1ccc(Cl)cc1` (stereo not given), the TGI stood at 29.4 µM in assay [2]; 44.7 µM in assay [3]; 52.4 µM in assay [5]; 47.5 µM in assay [7]; 36.4 µM in assay [10]; 36.5 µM in assay [8]. In [9], this compound yielded a TGI of more than 100 µM.

Turning to `Cc1cnoc1/N=C1\C=C(Nc2oncc2C)C(=O)c2ccccc21`, the TGI in assay [2], in assay [3], in [5], in assay [6], in assay [7] and in [10] was more than 100 µM each time. The TGI in assay [8] and in assay [9] was more than 100 µM in each case.

Consider `Cc1cccc(C)c1NC(=S)N/C=C(\C#N)C(N)=O`, for which the TGI in assay [2], in assay [3], in assay [4], in [5], in [6] and in [7] was more than 100 µM each time. For the same compound, the TGI in assay [10], in assay [8] and in [9] was more than 100 µM each time.

Turning to `CN1CCN(c2n[nH]c(=O)c3c2nnn3Cc2ccccc2)CC1`, the TGI in assay [1], in assay [2], in assay [3], in assay [4], in assay [6] and in assay [7] was more than 100 µM each time. The TGI in [8] and in assay [9] was more than 100 µM each time.

`CCO/C(O)=c1/s/c(=C2/SC(=S)N(c3ccc(C)cc3)C2=O)n(-c2ccccc2)c1=N`: the TGI was more than 100 µM in assay [1]; more than 100 µM in assay [2]; more than 100 µM in [3]; more than 100 µM in assay [4]; more than 100 µM in assay [5]; 59.7 µM in assay [7]. The TGI was 39 µM in [10], more than 100 µM in assay [8] and more than 100 µM in assay [9].

As for `Cc1cc2c3c(c1)S(=O)(=O)c1cc(Cl)ccc1N3CCC2`, the TGI in assay [1], in assay [2], in [3], in [4], in assay [5] and in assay [6] was more than 100 µM in each case. For the same compound, the TGI in [7], in assay [10], in assay [8] and in assay [9] was more than 100 µM each time.

`CN(C)c1ccc(-c2c(C#N)c(-c3ccccc3)n(NS(=O)(=O)c3ccccc3)c(=O)c2C#N)cc1`: the TGI in assay [1], in assay [2], in [3], in assay [4], in assay [5] and in assay [6] was more than 100 µM in each case. The TGI was more than 100 µM in assay [7], more than 100 µM in assay [10], more than 100 µM in [8] and 83.5 µM in assay [9].

In the case of `COc1ccc(Nc2nc3ccccc3nc2-c2cccs2)cc1OC`, the TGI in assay [2], in assay [3], in assay [4], in [5], in assay [6] and in assay [7] was more than 10 µM throughout. Further, the TGI in assay [10], in assay [8], in [9] and in assay [11] was more than 10 µM in each case.

As for `OC1CCN2Cc3ccccc3N=C12` (stereo not given), the TGI in assay [1], in [2], in [3], in [4], in [5] and in assay [6] was more than 100 µM each time. For the same compound, the TGI in assay [7], in assay [10], in assay [8] and in [9] was more than 100 µM throughout.

Regarding `CS(=O)(=O)N(CCC#N)c1ccc(/C=C2\N=C(c3ccccc3Cl)OC2=O)cc1`, the TGI in assay [2], in [3], in assay [5], in assay [6], in assay [7] and in [10] was more than 100 µM throughout. Moreover, the TGI in assay [8] and in assay [9] was more than 100 µM in each case.

As to `COc1cc2c(c3nc4ccccc4nc13)-c1ccc(SC)c(=O)cc1[C@@H](NC(C)=O)CC2`, the TGI in assay [2] was more than 100 µM; in assay [3] it was more than 100 µM; in assay [4], 0.0693 µM; in [5], more than 100 µM; in [6], more than 100 µM; in [7], more than 100 µM. Besides, the figures for the TGI in assay [10], in [8] and in assay [9] were 0.0603 µM, more than 100 µM and more than 100 µM, respectively.

In the case of `COC(=O)C1=C(C(=O)OC)C23CC4CCC2(C(=O)C1O3)C4(C)C` (stereo not given), the TGI in assay [2], in [3], in assay [5], in [6], in [7] and in assay [10] was more than 100 µM throughout. Further, the TGI in [8] and in assay [9] was more than 100 µM throughout.

With `CCOC(=O)CCC(NC(=O)C(CC(=O)OC)NC(=O)OCc1ccccc1)C(=O)NC(CC(=O)OC)C(=O)NC(CCC(=O)OCC)C(=O)NC(CC(=O)OC)C(=O)NC(CCC(=O)OCC)C(=O)NC(CC(=O)OCC)C(=O)OCC` (stereo not given) (Cbz-D(OMe)E(OEt)D(OMe)E(OEt)D(OMe)E(OEt)D(OEt)-OEt; configuration not given here), the TGI in assay [1], in assay [2], in assay [4], in assay [5], in assay [8] and in assay [9] was more than 100 µM each time. Further, the TGI in assay [11] is more than 100 µM.

Regarding `CCN(CC)c1c(-c2c(OC(C)C)c(=O)c2=O)c(=O)n2ccsc2c1OC(C)=O`, the TGI in assay [1], in [2], in assay [3], in [4], in assay [5] and in assay [7] was more than 100 µM in each case. Further, the TGI in assay [8] and in [9] was more than 100 µM each time.

Take `O=NN(CC1(O)OCC(O)C(O)C1O)C(Cc1c[nH]c2ccccc12)C(=O)O` (stereo not given): the TGI in [2], in [3], in assay [5], in [6], in assay [10] and in assay [8] was more than 100 µM in each case.

For the compound `Cc1cc(C)c2c(-c3ccccc3)cc(=O)[nH]c2c1`, the TGI in assay [2], in [3], in assay [4], in assay [5], in assay [6] and in assay [7] was more than 100 µM in each case. Also, the TGI in assay [8] and in assay [11] was more than 100 µM in each case.

On to `CSC(=Nc1ccc([N+](=O)[O-])cc1C#N)NC(=O)c1ccccc1`, for which the TGI in assay [2], in [3], in assay [5], in assay [6], in assay [7] and in assay [10] was more than 100 µM in each case. Also, in assay [9], the TGI was more than 100 µM.

`Cc1cccc(-c2cc(=O)c3cccnc3[nH]2)c1`: the TGI is more than 100 µM in assay [1]; more than 100 µM in [2]; 82 µM in [3]; 0.191 µM in assay [4]; more than 100 µM in assay [5]; more than 100 µM in assay [6]. For the same compound, the TGI in assay [7], in assay [10] and in [9] was more than 100 µM throughout.
